Measurements as given in ChEMBL document CHEMBL1135696, “Isotopic effect study of propofol deuteration on the metabolism, activity, and toxicity of the anesthetic” (J Med Chem, 2002).

Tests used:
[1] = Lethal Dose in mice (in vivo); conditions: mouse
[2] = Kinetic parameter, Km on human hepatic microsomes.; conditions: liver microsomes
in vivo = conditions: mouse, 24 mg/kg
Description: Therapeutic index (24 mg/kg) in mice (in vivo)

| Compound | LD50 [1] | Km [2] | selectivity ratio (in vivo) |
| --- | --- | --- | --- |
| [2H]c1cc(C(C)C)c(O)c(C(C)C)c1 [MONODEUTERATED PROPOFOL] | 39 mg/kg | 16.7 µM | 3 |
| CC(C)c1cccc(C(C)C)c1O [PROPOFOL] | 32 mg/kg | 12.3 µM | 2.1 |
| [2H]c1c([2H])c(C(C)C)c(O)c(C(C)C)c1[2H] [TRIDEUTERATED PROPOFOL] | 35 mg/kg | 16.4 µM | 2.7 |
